Results taken from PMC12920379 (European Journal of Nuclear Medicine and Molecular Imaging, 2025).

Key:
PC3 tumors = experiment: In vivo combination therapy with everolimus in PC3-mice
Description: (b) Everolimus monotherapy: Mice received everolimus (5 mg/kg/day) on days 0, 2, and 4 of the therapy.

[1] = Morphological assessment / tolerability of treated PC3-mice; format: in vivo
Description: Selected mouse organs (kidney, pancreas and tumor) were dissected from the sacrificed animals and immediately frozen using liquid nitrogen. Frozen tissue samples were sectioned at 7 μm thickness using a cryostat maintained at −20 °C to −25 °C and mounted onto microscope glass slides, followed by staining with hematoxylin and eosin for microscopic examination using standard protocols (supplementary material).
Frozen tissue samples (kidney, pancreas and tumor) were sectioned at 7 µm thickness using a cryostat maintained at −20°C to −25°C and mounted onto microscope glass slides. Sections were air-dried at room temperature for 15 minutes and subsequently fixed in 4% paraformaldehyde for 10 minutes. After rinsing in phosphate-buffered saline, slides were stained with hematoxylin for 5 minutes, rinsed in running tap water and differentiated in 1% acid alcohol followed by bluing in ammonia water. Sections were then counterstained with eosin for 1 minute and briefly washed in 70% ethanol to remove excess stain. Slides were dehydrated through graded ethanol (70%, 95%, 100%) and mounted with a permanent mounting medium. Stained sections were examined using a light microscope.

CO[C@H]1C[C@@H]2CC[C@@H](C)[C@@](O)(O2)C(=O)C(=O)N2CCCC[C@H]2C(=O)O[C@H]([C@H](C)C[C@@H]2CC[C@@H](OCCO)[C@H](OC)C2)CC(=O)[C@H](C)/C=C(\C)[C@@H](O)[C@@H](OC)C(=O)[C@H](C)C[C@H](C)/C=C/C=C/C=C/1C [everolimus]
Time tumor volume kept under 500 mm^3 (PC3 tumors; everolimus alone 5 mg/kg/day on days 0, 2, 4): 20 days | Median survival (PC3 tumors; everolimus alone 5 mg/kg/day on days 0, 2, 4, p > 0.5): ~ 25 days | Microscopic tissue examination, kidney ([1]; 5mg/kg (x3)): Vacuolar degeneration of some tubular epithelial cells. No other obvious lesions | Microscopic tissue examination, pancreas ([1]; 5mg/kg (x3)): No obvious lesions. | Tolerability (physical condition, weight fluctuations) ([1]; PC3-mice, three doses of everolimus): no observable side effects
